According to PubChem BioAssay AID624375 (Broad Institute, 2012):
Results filed as inconclusive are left out. Calls of active or inactive are those of the source.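 The calls were made as follows: active = fitted curve reaches -35% activity change at a concentration under twice the top valid dose, in every replicate test; inconclusive = replicate tests disagree on the call; inactive = the rest, including activity in the opposite direction.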

What was measured:
[1] = tested on: EBV-transformed LCL viability, CellTiter-Glo ATP luminescence, 48 h; assay: LCL growth inhibition by ATP luminescence – cell-based, CellTiter-Glo, dry powder, replicate tests, EBV LMP1 NF-kB inhibitor project, dose response (AID 624375)
[2] = as above; conditions: EBV-transformed LCL viability, CellTiter-Glo ATP luminescence, 48 h

C[C@H](CO)N1C[C@H](C)[C@@H](CN(C)CC2CC2)OCCCC[C@H](C)Oc2ccc(NC(=O)Nc3cccc4ccccc34)cc2C1=O
AC35 [1]: 43 µM

CSC(=S)N/N=C(\C)c1cccc(C)n1
AC35 [1]: 0.687 µM

C[C@H]1CCCCO[C@@H](CN(C)CC2CCCCC2)[C@@H](C)CN([C@@H](C)CO)C(=O)c2cc(NC(=O)C3CCCCC3)ccc2O1
AC35 [1]: 18.1 µM

C[C@@H]1CN([C@@H](C)CO)C(=O)c2cc(NC(=O)Nc3ccc4c(c3)OCO4)ccc2O[C@H]1CN(C)CC1CCCCC1
AC35 [1]: 89.9 µM

C/C(=N\NC(=S)N1CCC1)c1ccccn1
AC35 [1]: < 0.08 µM

C/C(=N\NC(=S)N1CCN(C2CCCCCC2)CC1)c1ccccn1
AC35 [1]: < 0.08 µM

C/C(=N\NC(=S)N1CCCCC1)c1ccccn1
AC35 [1]: < 0.08 µM

COc1ccc(-c2cc3nc4n(c(=O)c3s2)CCC4)cc1
activity change, negative = inhibition ([2]; at 19.5 µM (top of the series)): -3.35% (inactive)

COc1cccc(/C=N/Nc2ncnc3c2ncn3Cc2ccccc2)c1O
activity change, negative = inhibition ([2]; at 19.5 µM (top of the series)): -7.51% (inactive)

C/C(=N\NC(=S)N1CCCCC1)c1cccc(C)n1
AC35 [1]: < 0.08 µM

CCn1c2ccccc2c2cc(/C=N/n3cnnc3)ccc21
activity change, negative = inhibition ([2]; at 19.5 µM (top of the series)): -4.23% (inactive)

C/C(=N\NC(=S)Nc1ccccc1)c1ccccn1
AC35 [1]: < 0.08 µM

C/C(=N\NC(=S)N1CCCCCC1)c1ccccn1
AC35 [1]: < 0.08 µM

C[C@H](CO)N1C[C@H](C)[C@@H](CN(C)Cc2ccc(-c3ccccc3)cc2)Oc2ccc(NC(=O)Nc3cccc4ccccc34)cc2CC1=O
AC35 [1]: 28.8 µM

O=C1/C(=C/c2ccncc2)SC(=S)N1Cc1ccccc1
AC35 [1]: 38.5 µM

C/C(=N\NC(=S)N1CC2CCC(CC2)C1)c1cnccn1
AC35 [1]: < 0.08 µM

O=C(CSc1nnc2c3ccccc3n(Cc3ccccc3)c2n1)NCc1ccco1
AC35 [1]: 44.1 µM

C[C@@H]1CN([C@@H](C)CO)C(=O)c2cccc(NC(=O)Nc3cccc4ccccc34)c2O[C@H]1CN(C)C(=O)Nc1ccc(C(F)(F)F)cc1
AC35 [1]: 29.8 µM

C/C(=N\NC(=S)N1CC2CCC(CC2)C1)c1ccccn1
AC35 [1]: < 0.08 µM

Nc1ccn([C@@H]2O[C@H](CO)[C@@H](O)C2O)c(=O)n1 (some centres undefined)
AC35 [1]: 26.1 µM

CC1=C(C(=O)OCc2ccc3c(c2)OCO3)C(c2ccc(F)cc2)NC(=O)N1 (centres undefined)
activity change, negative = inhibition ([2]; at 19.5 µM (top of the series)): -2.46% (inactive)

COc1ccc(-c2csc3ncnc(NCCN4CCOCC4)c23)cc1
activity change, negative = inhibition ([2]; at 19.5 µM (top of the series)): -6.51% (inactive)

CC12CCC3C(CC=C4CC(O)CCC43CO)C1CCC2OC(=O)c1ccccc1 (centres undefined)
AC35 [1]: 45.6 µM

COCCCNC(=O)C(C)Sc1nnc2c3cc(C)ccc3n(Cc3ccccc3F)c2n1 (centres undefined)
AC35 [1]: 25 µM

C/C(=N\NC(=S)Nc1ccc(C)cc1)c1ccccn1
AC35 [1]: < 0.08 µM

C/C=C/C/C=C/CCC(=O)[C@H]1O[C@H]1C(N)=O
activity change, negative = inhibition ([2]; at 10 µM (top of the series)): -4.56% (inactive)

O=C(CCc1ccccc1)NC(c1cccs1)c1cc(Cl)c2cccnc2c1O (centres undefined)
activity change, negative = inhibition ([2]; at 19.5 µM (top of the series)): 4.93% (inactive)

CC(C)=CCN(C(=O)C#Cc1ccccc1)[C@H](CO)c1ccccc1
AC35 [1]: 8.22 µM

C[C@@H]1CCCCO[C@H](CN(C)C(=O)c2ccccc2)[C@H](C)CN([C@@H](C)CO)C(=O)c2cc(NC(=O)Nc3ccc(F)cc3)ccc2O1
activity change, negative = inhibition ([2]; at 19.5 µM (top of the series)): 2.16% (inactive)

C=C1C[C@]23C[C@@]1(O)CC[C@H]2[C@@]12C=C[C@H](O)[C@@](C)(C(=O)O1)[C@H]2[C@@H]3C(=O)O
activity change, negative = inhibition ([2]; at 12 µM (top of the series)): 5.8% (inactive)

Fc1ccc2c(c1)c1nnc(SCCN3CCOCC3)nc1n2Cc1ccccc1
AC35 [1]: 4.38 µM

O=c1[nH]c(=O)n([C@H]2C[C@H](O)[C@@H](CO)O2)cc1C(F)(F)F
AC35 [1]: 10.1 µM

Cc1ccc(NC(=O)C2CCN(S(=O)(=O)c3ccc4c(c3)NC(=O)C(C)S4)CC2)cc1Cl (centres undefined)
AC35 [1]: 45.7 µM

C=CCN1Cc2ccccc2[C@@H]2OC(c3ccc(OCCCO)cc3)=N[C@]2(CCC(=O)OC(C)(C)C)C1=O
activity change, negative = inhibition ([2]; at 19.5 µM (top of the series)): 1.04% (inactive)

Cc1ccnc(NC(=O)c2ccc(C(=O)c3ccccc3)cc2)c1
AC35 [1]: 24.1 µM

Cc1c(NC(=O)c2cccc(NC(=O)COc3ccccc3C#N)c2)c(=O)n(-c2ccccc2)n1C
AC35 [1]: 45.6 µM

C/C(=N\NC(=S)N1CCN(c2ccccn2)CC1)c1ccccn1
AC35 [1]: < 0.08 µM

COc1ccc2[nH]c(C(=O)N/N=C/c3ccc(O)cc3O)cc2c1
AC35 [1]: 26.7 µM

COc1ccccc1NC(=S)N/N=C(\C)c1ccccn1
AC35 [1]: < 0.08 µM

CCc1ccc(/C=C2\SC(=S)N(CCCC(=O)Nc3ccccn3)C2=O)cc1
activity change, negative = inhibition ([2]; at 19.5 µM (top of the series)): 3.41% (inactive)

C[C@H](CO)N1C[C@H](C)[C@H](CN(C)C(=O)Nc2ccc(C(F)(F)F)cc2)OCCCC[C@H](C)Oc2ccc(NC(=O)Nc3ccc(F)cc3)cc2C1=O
AC35 [1]: 21.5 µM

C/C(=N\NC(=S)N1CC2CCC(CC2)C1)c1ccncn1
AC35 [1]: < 0.08 µM

S=C(NCc1ccccn1)N/N=C/c1ccccn1
AC35 [1]: < 0.08 µM

S=C(N/N=C(\c1ccccc1)c1ccccn1)N(Cc1ccccn1)Cc1ccccn1
AC35 [1]: 0.135 µM

C/C(=N\NC(=S)Nc1cccc(Cl)c1)c1ccccn1
AC35 [1]: < 0.08 µM

C=C1C[C@]23C[C@@]1(O)CC[C@@H]2c1cccc(C)c1[C@@H]3C(=O)O
AC35 [1]: 9.19 µM

C[C@@H]1CCCCO[C@H](CN(C)S(=O)(=O)c2ccccc2)[C@@H](C)CN([C@@H](C)CO)C(=O)c2cc(N(C)C)ccc2O1
activity change, negative = inhibition ([2]; at 19.5 µM (top of the series)): -2.16% (inactive)

C[C@@H]1CCCCO[C@H](CN(C)C(=O)NC2CCCCC2)[C@H](C)CN([C@@H](C)CO)C(=O)c2cc(NC(=O)C3CCCCC3)ccc2O1
AC35 [1]: 22.1 µM

C/C(=N\NC(=S)Nc1cccc(C)c1)c1ccccn1
AC35 [1]: < 0.08 µM

CSc1nc(-c2ccc(C)cc2)nc(C(Cl)Cl)n1
AC35 [1]: 21.7 µM

CCC(Sc1nnc2c3ccccc3n(Cc3ccc(Br)cc3)c2n1)C(=O)NCCCN1CCOCC1 (centres undefined)
AC35 [1]: 8.58 µM

CCc1ccc(/C=C/C(=O)C2C(=O)c3ccccc3C2=O)cc1
activity change, negative = inhibition ([2]; at 19.5 µM (top of the series)): 10.9% (inactive)

C[C@@H]1CN([C@@H](C)CO)C(=O)c2cc(NC(=O)Nc3ccc(C(F)(F)F)cc3)ccc2O[C@@H](C)CCCCO[C@@H]1CN(C)CC1CCCCC1
AC35 [1]: 45.7 µM

C/C(=N\NC(=S)N1CC2CCC(CC2)C1)c1cccc(C)n1
AC35 [1]: 0.409 µM

COc1ccc(NC(=O)c2ccc(OC(C)C(=O)O)cc2)cc1Cl (centres undefined)
AC35 [1]: 34.1 µM

C[C@@H]1CCCCO[C@@H](CN(C)Cc2ccccc2)[C@H](C)CN([C@H](C)CO)C(=O)c2cc(NC(=O)Nc3ccc4c(c3)OCO4)ccc2O1
activity change, negative = inhibition ([2]; at 19.5 µM (top of the series)): 1.71% (inactive)

C/C(=N\NC(=S)Nc1ccccc1Cl)c1ccccn1
AC35 [1]: < 0.08 µM

C/C(=N\NC(=S)N1CCCC1)c1ccccn1
AC35 [1]: < 0.08 µM

CCN1CCN(C(c2cccnc2)c2cc(Cl)c3cccnc3c2O)CC1 (centres undefined)
AC35 [1]: 26.5 µM

CCCSc1nnc2c3ccccc3n(Cc3ccccc3)c2n1
activity change, negative = inhibition ([2]; at 19.5 µM (top of the series)): -1.02% (inactive)

c1ccc(-c2cn3c4c(sc3n2)CCCC4)cc1
activity change, negative = inhibition ([2]; at 19.5 µM (top of the series)): 6.87% (inactive)

C[C@@H]1CN([C@@H](C)CO)C(=O)c2cc(NC(=O)Nc3ccc(C(F)(F)F)cc3)ccc2O[C@@H](C)CCCCO[C@H]1CN(C)Cc1ccc(C(F)(F)F)cc1
AC35 [1]: 30.8 µM

CCc1sc(C(=O)Nc2ncccc2O)cc1C
activity change, negative = inhibition ([2]; at 19.5 µM (top of the series)): -13.2% (inactive)

CC(=O)Nc1nc(C)c(-c2csc(Nc3ccc(O)cc3)n2)s1
AC35 [1]: 22.8 µM
